Common to all, as to assay type: cell-based
Data set [1] relates to ROS generation in PC-3 cells. Briefly: ROS generation, PC-3 cells. Conditions: 0–30 min; Fig. S5A. As for the experimental part:
(§1) Intracellular ROS levels were evaluated using the fluorescent probe 5-(and-6)-chloromethyl-2′,7′-dichlorodihydrofluorescein diacetate (CM-H2DCFDA) (Invitrogen). After treatments with Peptide A-8R, C81 cells were loaded with 20 µM CM-H2DCFDA and incubated at 37°C for 30 min in the dark. Cells were then washed with PBS and fluorescence was measured at the excitation and emission wavelengths of 490 and 535 nm, respectively, using a multi-well fluorescence plate reader. For NAC (N-acetyl cysteine) (Sigma) rescue experiment, cells were pretreated with 1 or 5 mM NAC for 2 hours before adding Peptide A-8R.
Supplementary file pone.0064189.s005.tif: Figure S5 ROS generation is not induced by Peptide A-8R in PC-3 cells and Peptide C-8R in LNCaP cells. (A) PC-3 cells were treated with Vehicle or different concentrations of Peptide A-8R or Peptide C-8R, as shown, or (B) LNCaP cells were treated with Vehicle or different concentrations of Peptide A-8R or Peptide C-8R, or H2O2 and monitored for ROS generation after 0–30 (A) or 30 (B) min. (C) LNCaP cells were treated with Vehicle, Peptide C-8R (10 µM), Peptide A-8R (10 µM), or Etoposide (100 µM) for 0–8 hrs and subjected to a Caspase assay to measure apoptosis. Bar graphs represent averages of three independent experiments plus standard deviations. (C) All activities are relative to the first condition, and this activity was set to either 1. […]

A further data set deals with prostate cancer cells. The experiment in a line: Cytotoxicity against prostate cancer cells (summary). Conditions: hormone-dependent and hormone-refractory prostate cancer cells. As for the experimental part:
(§2) For proliferation, cells were grown in medium containing 2% FBS extracted with dextran-coated charcoal (DCC). 48 hours later, ethanol or 1 nM R1881 was added to the cells followed by peptide treatment. The MTT assay (Sigma) was used as before to determine cell number. For apoptosis, 5000 cells were seeded in 96-well plates and treated with Vehicle (DMSO), Peptide A-8R (25 µM), Etoposide (50 µM) (Sigma) at different time points. The Caspase (3/7) activity was measured using Apo-ONE Homogeneous Caspase-3/7 assay kit (Promega). PARP cleavage was also used to measure apoptosis, and is described below.

The next data set has as its system C81 cells. Briefly: NAC rescue of proliferation of Peptide A-8R-treated cells (MTT). The conditions noted are these: 50 µM vs 10 and 25 µM. As for the experimental part:
as §2, §1
Figure 4 Peptide A-8R kills prostate cancer cells by mediating ROS generation. (A) C81 cells were treated with Vehicle or different µMolar concentrations of Peptide A-8R and without or with 0–5 mM NAC and monitored for ROS generation after 0–30 min as measured by fluorescence intensity (FI). Bar graphs represent averages of three independent experiments plus standard deviations. Note that asterisks on bar graphs found with NAC are compared to equivalent data without NAC. (B) C81 cells were treated with Vehicle or different concentrations of Peptide A-8R, as shown, and 0–5 mM NAC, as shown, and monitored for cell number after 0–6 days of incubation as measured by MTT assay. Data points represent averages of three independent experiments plus standard deviations. Asterisks indicate statistical significance (P<0.04). (C) C81 cells were treated with Vehicle or different concentrations of Peptide A-8R, as shown, and with or without 5 mM NAC, as shown, and monitored DNA damage after 1 hr incubation as measured by Comet assay.

Data set [2] has as its system Caspase 3/7 activity in LNCaP cells. Briefly: Caspase 3/7 assay, LNCaP cells. Conditions: Fig. 5A; for increase in Caspase 3/7 activity: 10 µM, averages of three independent experiments, relative to first condition. The protocol:
as §2
Figure 5 Peptide A-8R induces apoptosis of prostate cancer cells. (A) LNCaP, (B) PC-3, or (C) Cos cells were treated with Vehicle, Peptide A-8R (10 µM), or Etoposide (20 µM) for 0–24 hrs and subjected to a Caspase assay to measure apoptosis. Bar graphs represent averages of three independent experiments plus standard deviations. All activities are relative to the first condition, and this activity was set to 1. Asterisks indicate statistical significance (P<0.005). (D) LNCaP cells were treated with Vehicle, Peptide C-8R, Peptide A-8R, or Etoposide (each drug at 50 µM) for 8 hrs and monitored for apoptosis by measuring PARP cleavage using Western blotting. Note that β-actin was used to control for protein loading.
Supplementary file pone.0064189.s005.tif: Figure S5 ROS generation is not induced by Peptide A-8R in PC-3 cells and Peptide C-8R in LNCaP cells. (A) PC-3 cells were treated with Vehicle or different concentrations of Peptide A-8R or Peptide C-8R, as shown, or (B) LNCaP cells were treated with Vehicle or different concentrations of Peptide A-8R or Peptide C-8R, or H2O2 and monitored for ROS generation after 0–30 (A) or 30 (B) min. (C) LNCaP cells were treated with Vehicle, Peptide C-8R (10 µM), Peptide A-8R (10 µM), or Etoposide (100 µM) for 0–8 hrs and subjected to a Caspase assay to measure apoptosis. Bar graphs represent averages of three independent experiments plus standard deviations. (C) All activities are relative to the first condition, and this activity was set to either 1. Asterisks indicate statistical significance (P<0.006) of all values compared to Vehicle (B) or to 0 hour (C). (TIF) Click here for additional data file.

“Also recorded” adds a separate entry of the source. Where no end group is shown, it is not given here.

For Ac-TFCKAFPFHIIRRRRRRRR [Peptide A-8R], the “ROS generation, PC-3 cells” value in data set [1] is “do not respond; also recorded: not induced”. Moreover, the “cytotoxic activity against prostate cancer cells (summary)” value in the data set with prostate cancer cells is given as “strongly cytotoxic to prostate cancer cells, rapidly inducing apoptosis; also recorded: strongly cytotoxic to sGCα1-expressing prostate cancer cells, but not to sGCα1-deficient cells; also recorded: showed the strongest activity”. Moreover, the “cytotoxicity at 50 µM relative to lower concentrations” value in the data set with C81 cells is on record as “strongest cytotoxic activity”. Besides, the entries for the “increase in Caspase 3/7 activity” value in data set [2] (1 hour) and in data set [2] (8 hrs) were 2 fold and ~4 fold, respectively. In addition, the “speed of Caspase 3/7 induction relative to Etoposide” value in data set [2] was “much faster than the well-studied apoptosis-inducing drug Etoposide”. Also, in data set [2] (Peptide 10 µM, Etoposide 20 µM, 24 hrs), the “Caspase 3/7 activity” value was “diminished to Vehicle levels”.
